According to patent USRE47689E1, “Compounds for treating spinal muscular atrophy” (PTC Therapeutics, Inc., priority 2011, dated 2019):
Like-named read-outs stand apart in the source and are kept apart here.

Experiments:
[1] = system: Smn protein; assay: Smn protein assay in cultured cells (SMN HTRF); type: cell-based, human; conditions: 48 hours; for maximum fold (Fold) increase of Smn protein: SMA patient fibroblast cells, 7-point concentration data, fold increase relative to vehicle control (SMN HTRF); for EC1.5x (concentration giving 1.5-fold Smn protein increase): SMA Type 1 patient fibroblast cells (GM03813), 7-point concentration curve, SMN HTRF, concentration producing 1.5 times Smn protein vs DMSO vehicle control, read-out: EC1.5x for Smn protein expression
In short: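 Smn in SMA fibroblast lysates, measured by anti-SMN HTRF after 48 h compound exposure; EC1.5x from fold change over vehicle.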

[2] = system: SMN2 minigene (full length SMN2 minigene mRNA containing SMN2 exon 7); assay: SMN2 minigene mRNA splicing RT-qPCR assay in cultured cells; type: cell-based, human; conditions: Homo sapiens, HEK293-H, read-out: EC1.5x for production of full length SMN2 mRNA
In short: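 Lysates → one-step RT-qPCR, minigene-specific primers (0.4 μM final) + GAPDH multiplex, 40 cycles. FL/GAPDH vs DMSO; EC1.5x, star-binned.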

[3] = HEK293H cells stably transfected with SMN2-A minigene, 24 hours, 7-point concentration curve, 1.5-fold relative to vehicle-treated cells

melting point [°C] | Structure (SMILES) | maximum fold (Fold) increase of Smn protein [1] | EC (1.5-fold) [2, 3] [µM] | EC1.5x (concentration giving 1.5-fold Smn protein increase) [1] [nM] | EC (1.5-fold) ([2]; 24 h) [µM]
276 to 286 | O=c1oc2cc(N3CCNCC3)ccc2cc1-c1cn2cc(F)cc(F)c2n1 [Compound 532, 3-(6,8-difluoroimidazo[1,2-a]pyridin-2-yl)-7-(piperazin-1-yl)-2H-chromen-2-one] | * (maximum fold increase of ≤1.2) | 0.3 to 1 | – | –
231 to 233 | Cc1cn2cc(-c3cc4ccc(N5CCN6CCC[C@H]6C5)cc4oc3=O)ccc2n1 [Cpd 651, 7-[(8aS)-hexahydropyrrolo[1,2-a]pyrazin-2(1H)-yl]-3-(2-methylimidazo[1,2-a]pyridin-6-yl)-2H-chromen-2-one] | *** (fold increase between >1.35 and ≤1.5) | < 0.1 | < 300 | –
134 to 140 | COc1ccc(-c2cc3c(F)cc(N4CCCN(C)CC4)cc3oc2=O)cc1OC [Compound 406, 3-(3,4-dimethoxyphenyl)-5-fluoro-7-(4-methyl-1,4-diazepan-1-yl)-2H-chromen-2-one] | * (maximum fold increase of ≤1.2) | 3 to 30 | – | –
209 to 212 | Cc1cn2cc(-c3cc4ccc(N5CCC(N(CCO)CCO)CC5)cc4oc3=O)nc2c(C)n1 [Compound 928, 7-{4-[bis(2-hydroxyethyl)amino]piperidin-1-yl}-3-(6,8-dimethylimidazo[1,2-a]pyrazin-2-yl)-2H-chromen-2-one] | *** (fold increase between >1.35 and ≤1.5) | 0.1 to 0.3 | – | –
143 to 145 | C[C@H]1CN(c2ccc3cc(-c4ccc(F)c(Cl)c4)c(=O)oc3c2)CCN1 [Compound 485, 3-(3-chloro-4-fluorophenyl)-7-[(3S)-3-methylpiperazin-1-yl]-2H-chromen-2-one] | * (maximum fold increase of ≤1.2) | 1 to 3 | – | –
179 to 183 | Cc1ccc2oc(-c3cc4ccc(N5C[C@@H](C)N[C@@H](C)C5)cc4oc3=O)cc2n1 [Compound 720, 7-[(3R,5S)-3,5-dimethylpiperazin-1-yl]-3-(5-methylfuro[3,2-b]pyridin-2-yl)-2H-chromen-2-one] | ** (fold increase between >1.2 and ≤1.35) | 0.3 to 1 | – | –
249 to 253 | O=c1oc2cc(N3CCNCC3)cc(F)c2cc1-c1nc2c(C(F)(F)F)cccc2o1 [Compound 254, 5-fluoro-7-(piperazin-1-yl)-3-[4-(trifluoromethyl)-1,3-benzoxazol-2-yl]-2H-chromen-2-one] | * (maximum fold increase of ≤1.2) | 0.3 to 1 | – | –
225 to 230 | O=c1oc2cc(N3CCCNCC3)ccc2cc1-c1cn2ccsc2n1 [Compound 206, 7-(1,4-diazepan-1-yl)-3-(imidazo[2,1-b][1,3]thiazol-6-yl)-2H-chromen-2-one] | ** (fold increase between >1.2 and ≤1.35) | 0.3 to 1 | – | –
195 to 199 | Cc1cn2cc(-c3cc4ccc(CCCNC(CO)CO)cc4oc3=O)nc2c(C)n1 [Compound 882, 7-{3-[(1,3-dihydroxypropan-2-yl)amino]propyl}-3-(6,8-dimethylimidazo[1,2-a]pyrazin-2-yl)-2H-chromen-2-one] | **** (fold increase between >1.5 and ≤1.65) | < 0.1 | < 300 | –
290 to 292 | CN1CCN(c2ccc3cc(-c4cn5cc(Cl)ccc5n4)c(=O)oc3c2)CC1 [Compound 94, 3-(6-chloroimidazo[1,2-a]pyridin-2-yl)-7-(4-methylpiperazin-1-yl)-2H-chromen-2-one] | *** (fold increase between >1.35 and ≤1.5) | 3 to 30 | – | –
254 to 258 | O=c1oc2cc(N3CCNCC3)ccc2cc1-c1nc2ccccc2[nH]1 [Compound 313, 3-(1H-benzimidazol-2-yl)-7-(piperazin-1-yl)-2H-chromen-2-one] | * (maximum fold increase of ≤1.2) | 0.3 to 1 | – | –
172 to 174 | Cc1cn2cc(-c3cc4ccc(OC[C@H]5CCCN5)cc4oc3=O)nc2c(C)n1 [Cpd 948, 3-(6,8-dimethylimidazo[1,2-a]pyrazin-2-yl)-7-[(2R)-pyrrolidin-2-ylmethoxy]-2H-chromen-2-one] | *** (fold increase between >1.35 and ≤1.5) | < 0.1 | – | –
238 to 241 | CN(C)[C@H]1CCN(c2ccc3cc(-c4cn5cccc(Cl)c5n4)c(=O)oc3c2)C1 [Compound 122, 3-(8-chloroimidazo[1,2-a]pyridin-2-yl)-7-[(3S)-3-(dimethylamino)pyrrolidin-1-yl]-2H-chromen-2-one] | * (maximum fold increase of ≤1.2) | 1 to 3 | – | –
270 to 272 | Cc1cn2cc(-c3cc4ccc(N5CCN(C(C)(C)C)CC5)cc4oc3=O)nc2c(C)n1 [Compound 812, 7-(4-tert-butylpiperazin-1-yl)-3-(6,8-dimethylimidazo[1,2-a]pyrazin-2-yl)-2H-chromen-2-one] | *** (fold increase between >1.35 and ≤1.5) | < 0.1 | – | –
225 to 228 | Cc1nn2cc(-c3cc4ccc(N5C[C@@H](C)N[C@@H](C)C5)cc4oc3=O)nc2s1 [Compound 443, 7-[(3R,5S)-3,5-dimethylpiperazin-1-yl]-3-(2-methylimidazo[2,1-b][1,3,4]thiadiazol-6-yl)-2H-chromen-2-one] | **** (fold increase between >1.5 and ≤1.65) | < 0.1 | 300 to 1000 | –
186 to 191 | Cc1cc2oc(-c3cc4ccc(N5CCN(C(C)C)CC5)cc4oc3=O)cc2c(C)n1 [Compound 840, 3-(4,6-dimethylfuro[3,2-c]pyridin-2-yl)-7-[4-(propan-2-yl)piperazin-1-yl]-2H-chromen-2-one] | * (maximum fold increase of ≤1.2) | 0.3 to 1 | – | –
220 to 221 | Cc1cn2cc(-c3cc4ccc(N5CCN(C)[C@H](C)C5)cc4oc3=O)nc2c(C)n1 [Compound 606, 3-(6,8-dimethylimidazo[1,2-a]pyrazin-2-yl)-7-[(3R)-3,4-dimethylpiperazin-1-yl]-2H-chromen-2-one] | ***** (fold increase >1.65) | < 0.1 | < 300 | –
198 to 201 | O=c1oc2cc(OC3CCNCC3)ccc2cc1-c1nc2ccccc2o1 [Cpd 20, 3-(1,3-benzoxazol-2-yl)-7-(piperidin-4-yloxy)-2H-chromen-2-one] | * (maximum fold increase of ≤1.2) | 3 to 30 | – | –
280 to 281 | Cc1cn2cc(-c3cc4ccc(C5CCNCC5)cc4oc3=O)cnc2n1 [Compound 834, 3-(2-methylimidazo[1,2-a]pyrimidin-6-yl)-7-(piperidin-4-yl)-2H-chromen-2-one] | ***** (fold increase >1.65) | < 0.1 | < 300 | –
158 to 160 | O=c1oc2cc(N3CCNCC3)ccc2cc1-c1cccc(C(F)(F)F)n1 [Compound 90, 7-(piperazin-1-yl)-3-[6-(trifluoromethyl)pyridin-2-yl]-2H-chromen-2-one] | *** (fold increase between >1.35 and ≤1.5) | 0.3 to 1 | – | –
178 to 181 | Cc1cn2cc(-c3cc4ccc(N5CCCNCC5)cc4oc3=O)cc2cn1 [Compound 638, 7-(1,4-diazepan-1-yl)-3-(3-methylpyrrolo[1,2-a]pyrazin-7-yl)-2H-chromen-2-one] | **** (fold increase between >1.5 and ≤1.65) | < 0.1 | < 300 | –
221 to 226 | Cc1cc(C)c2nc(-c3cc4ccc(N5CCN[C@@H](C)C5)cc4oc3=O)cn2c1 [Compound 425, 3-(6,8-dimethylimidazo[1,2-a]pyridin-2-yl)-7-[(3S)-3-methylpiperazin-1-yl]-2H-chromen-2-one] | *** (fold increase between >1.35 and ≤1.5) | 0.1 to 0.3 | 1000 to 3000 | –
221 to 227 | CC1(C)CN(c2ccc3cc(-c4cn5ccc(C(F)(F)F)cc5n4)c(=O)oc3c2)CCN1 [Compound 269, 7-(3,3-dimethylpiperazin-1-yl)-3-[7-(trifluoromethyl)imidazo[1,2-a]pyridin-2-yl]-2H-chromen-2-one] | * (maximum fold increase of ≤1.2) | 1 to 3 | – | –

Structure (SMILES) | melting point [°C] | maximum fold (Fold) increase of Smn protein [1] | EC (1.5-fold) [2, 3] [µM] | EC1.5x (concentration giving 1.5-fold Smn protein increase) [1] [nM] | EC (1.5-fold) ([2]; 24 h) [µM]
O=c1oc2cc(N3CCN4CCC3CC4)ccc2cc1-c1cn2cccnc2n1 [Compound 440, 7-(1,4-diazabicyclo[3.2.2]non-4-yl)-3-(imidazo[1,2-a]pyrimidin-2-yl)-2H-chromen-2-one] | > 300 | * (maximum fold increase of ≤1.2) | – | – | 1 to 3
